# Tests used:
# Test in all cases: Test C pre-/postemergence greenhouse test
# Format in all cases: in vivo
# [1] = tested on: crabgrass, large (Digitaria sanguinalis); settings: scale 0 to 100
# Description: (§1) Seeds of plant species selected from blackgrass (Alopecurus myosuroides), ryegrass, Italian (Lolium multiflorum), wheat, winter (winter wheat, Triticum aestivum), galium (catchweed bedstraw, Galium aparine), corn (Zea mays), crabgrass, large (Digitaria sanguinalis), foxtail, giant (Setaria faberii), johnsongrass (Sorghum halepense), lambsquarters (Chenopodium album), morningglory (Ipomoea coccinea), nutsedge, yellow (Cyperus esculentus), pigweed (Amaranthus retroflexus), ragweed (common ragweed, Ambrosia elatior), soybean (Glycine max), barnyardgrass (Echinochloa crus-galli), oilseed rape (Brassica napus), waterhemp (common waterhemp, Amaranthus rudis), pigweed, palmer (Amaranthus palmeri), kochia (Kochia scoparia), oat, wild (Avena fatua), surinam grass (Brachiaria decumbens), windgrass (Apera spica-venti), poinsettia, wild (Euphorbia heterophylla) and velvetleaf (Abutilon theophrasti) were planted into a silt loam soil and treated preemergence with test chemicals formulated in a non-phytotoxic solvent mixture which included a surfactant.
# (§2) At the same time, plants selected from these crop and weed species and also chickweed (common chickweed, Stellaria media), buckwheat, wild (Polygonum convolvulus), mustard, wild (Sinapis arvensis), field poppy (Papaver rhoeas), field violet (Viola arvensis), nightshade (eastern black nightshade, Solanum ptycanthum), speedwell (bird's-eye speedwell, Veronica persica), horseweed (Conyza canadensis), cutleaf geranium (Geranium dissectum), and Canada thistle (Cirsium arvense) were planted in pots containing Redi-Earth® planting medium (Scotts Company, 14111 Scottslawn Road, Marysville, Ohio 43041) comprising spaghnum peat moss, vermiculite, wetting agent and starter nutrients and treated with postemergence applications of test chemicals formulated in the same manner. Plants ranged in height from 2 to 18 cm (1- to 4-leaf stage) for postemergence treatments. Treated plants and controls were maintained in a greenhouse for 13 to 21 d, after which time all species were compared to controls and visually evaluated. Plant response ratings, summarized in Table C-1 (postemergence) and C-2 (preemergence), are based on a scale of 0 to 100 where 0 is no effect and 100 is complete control. A dash (-) response means no test result.
# [2] = tested on: foxtail, giant (Setaria faberii); settings: scale 0 to 100
# Description: as §1, §2
# [3] = tested on: galium (catchweed bedstraw, Galium aparine); settings: scale 0 to 100
# Description: as §1, §2
# [4] = tested on: johnsongrass (Sorghum halepense); settings: scale 0 to 100
# Description: as §1, §2
# oat, wild (Avena fatua) = settings: Postemergence, scale 0 to 100
# Description: as §1, §2
# [5] = tested on: oilseed rape (Brassica napus); settings: scale 0 to 100
# Description: as §1, §2
# [6] = tested on: ryegrass, Italian (Lolium multiflorum); settings: scale 0 to 100
# Description: as §1, §2
# soybean (Glycine max) = settings: scale 0 to 100
# Description: as §1, §2
# [7] = tested on: velvetleaf (Abutilon theophrasti); settings: scale 0 to 100
# Description: as §1, §2
# [8] = tested on: wheat, winter (winter wheat, Triticum aestivum); settings: scale 0 to 100
# Description: as §1, §2
smiles,measurement,setting,value
"Cc1ccc2ccc(C)c(-c3c(O)c(Cl)nn(C)c3=O)c2c1 [Cpd. No. 20, 6-chloro-4-(2,7-dimethyl-1-naphthalenyl)-5-hydroxy-2-methyl-3(2H)-pyridazinone]","Plant response rating, Crabgrass, Large","[1]; Postemergence, 16 g ai/ha",40
same,"Plant response rating, Crabgrass, Large","[1]; Postemergence, 31 g ai/ha",40
same,"Plant response rating, Crabgrass, Large","[1]; Postemergence, 62 g ai/ha",70
same,"Plant response rating, Crabgrass, Large","[1]; Postemergence, 125 g ai/ha",80
same,"Plant response rating, Crabgrass, Large","[1]; Preemergence, 31 g ai/ha",60
same,"Plant response rating, Crabgrass, Large","[1]; Preemergence, 61 g ai/ha",60
same,"Plant response rating, Crabgrass, Large","[1]; Preemergence, 62 g ai/ha",95
same,"Plant response rating, Crabgrass, Large","[1]; Preemergence, 125 g ai/ha",100
same,"Plant response rating, Foxtail, Giant","[2]; Postemergence, 16 g ai/ha",70
same,"Plant response rating, Foxtail, Giant","[2]; Postemergence, 31 g ai/ha",85
same,"Plant response rating, Foxtail, Giant","[2]; Postemergence, 62 g ai/ha",85
same,"Plant response rating, Foxtail, Giant","[2]; Postemergence, 125 g ai/ha",95
same,"Plant response rating, Foxtail, Giant","[2]; Preemergence, 31 g ai/ha",100
same,"Plant response rating, Foxtail, Giant","[2]; Preemergence, 61 g ai/ha",98
same,"Plant response rating, Foxtail, Giant","[2]; Preemergence, 62 g ai/ha",100
same,"Plant response rating, Foxtail, Giant","[2]; Preemergence, 125 g ai/ha",100
same,"Plant response rating, Galium","[3]; Postemergence, 16 g ai/ha",95
same,"Plant response rating, Galium","[3]; Postemergence, 31 g ai/ha",95
same,"Plant response rating, Galium","[3]; Postemergence, 62 g ai/ha",95
same,"Plant response rating, Galium","[3]; Postemergence, 125 g ai/ha",95
same,"Plant response rating, Galium","[3]; Preemergence, 31 g ai/ha",100
same,"Plant response rating, Galium","[3]; Preemergence, 61 g ai/ha",98
same,"Plant response rating, Galium","[3]; Preemergence, 62 g ai/ha",100
same,"Plant response rating, Galium","[3]; Preemergence, 125 g ai/ha",100
same,"Plant response rating, Johnsongrass","[4]; Postemergence, 16 g ai/ha",5
same,"Plant response rating, Johnsongrass","[4]; Postemergence, 31 g ai/ha",10
same,"Plant response rating, Johnsongrass","[4]; Postemergence, 62 g ai/ha",30
same,"Plant response rating, Johnsongrass","[4]; Postemergence, 125 g ai/ha",35
same,"Plant response rating, Johnsongrass","[4]; Preemergence, 31 g ai/ha",40
same,"Plant response rating, Johnsongrass","[4]; Preemergence, 61 g ai/ha",35
same,"Plant response rating, Johnsongrass","[4]; Preemergence, 62 g ai/ha",30
same,"Plant response rating, Johnsongrass","[4]; Preemergence, 125 g ai/ha",65
same,"Plant response rating, Oat, Wild","oat, wild (Avena fatua); 16 g ai/ha",35
same,"Plant response rating, Oat, Wild","oat, wild (Avena fatua); 31 g ai/ha",55
same,"Plant response rating, Oat, Wild","oat, wild (Avena fatua); 62 g ai/ha",70
same,"Plant response rating, Oat, Wild","oat, wild (Avena fatua); 125 g ai/ha",90
same,"Plant response rating, Oilseed Rape","[5]; Postemergence, 16 g ai/ha",0
same,"Plant response rating, Oilseed Rape","[5]; Postemergence, 31 g ai/ha",0
same,"Plant response rating, Oilseed Rape","[5]; Postemergence, 62 g ai/ha",0
same,"Plant response rating, Oilseed Rape","[5]; Postemergence, 125 g ai/ha",0
same,"Plant response rating, Oilseed Rape","[5]; Preemergence, 31 g ai/ha",0
same,"Plant response rating, Oilseed Rape","[5]; Preemergence, 61 g ai/ha",0
same,"Plant response rating, Oilseed Rape","[5]; Preemergence, 62 g ai/ha",0
same,"Plant response rating, Oilseed Rape","[5]; Preemergence, 125 g ai/ha",0
same,"Plant response rating, Ryegrass, Italian","[6]; Postemergence, 16 g ai/ha",65
same,"Plant response rating, Ryegrass, Italian","[6]; Postemergence, 31 g ai/ha",85
same,"Plant response rating, Ryegrass, Italian","[6]; Postemergence, 62 g ai/ha",95
same,"Plant response rating, Ryegrass, Italian","[6]; Postemergence, 125 g ai/ha",95
same,"Plant response rating, Ryegrass, Italian","[6]; Preemergence, 31 g ai/ha",100
same,"Plant response rating, Ryegrass, Italian","[6]; Preemergence, 61 g ai/ha",98
same,"Plant response rating, Ryegrass, Italian","[6]; Preemergence, 62 g ai/ha",100
same,"Plant response rating, Ryegrass, Italian","[6]; Preemergence, 125 g ai/ha",100
same,"Plant response rating, Soybean","soybean (Glycine max); Postemergence, 16 g ai/ha",0
same,"Plant response rating, Soybean","soybean (Glycine max); Postemergence, 31 g ai/ha",10
same,"Plant response rating, Soybean","soybean (Glycine max); Postemergence, 62 g ai/ha",10
same,"Plant response rating, Soybean","soybean (Glycine max); Postemergence, 125 g ai/ha",20
same,"Plant response rating, Soybean","soybean (Glycine max); Preemergence, 31 g ai/ha",0
same,"Plant response rating, Soybean","soybean (Glycine max); Preemergence, 61 g ai/ha",0
same,"Plant response rating, Soybean","soybean (Glycine max); Preemergence, 62 g ai/ha",20
same,"Plant response rating, Soybean","soybean (Glycine max); Preemergence, 125 g ai/ha",60
same,"Plant response rating, Velvetleaf","[7]; Postemergence, 16 g ai/ha",70
same,"Plant response rating, Velvetleaf","[7]; Postemergence, 31 g ai/ha",75
same,"Plant response rating, Velvetleaf","[7]; Postemergence, 62 g ai/ha",85
same,"Plant response rating, Velvetleaf","[7]; Postemergence, 125 g ai/ha",90
same,"Plant response rating, Velvetleaf","[7]; Preemergence, 31 g ai/ha",100
same,"Plant response rating, Velvetleaf","[7]; Preemergence, 61 g ai/ha",85
same,"Plant response rating, Velvetleaf","[7]; Preemergence, 62 g ai/ha",100
same,"Plant response rating, Velvetleaf","[7]; Preemergence, 125 g ai/ha",100
same,"Plant response rating, Wheat","[8]; Postemergence, 16 g ai/ha",0
same,"Plant response rating, Wheat","[8]; Postemergence, 31 g ai/ha",0
same,"Plant response rating, Wheat","[8]; Postemergence, 62 g ai/ha",0
same,"Plant response rating, Wheat","[8]; Postemergence, 125 g ai/ha",0
same,"Plant response rating, Wheat","[8]; Preemergence, 31 g ai/ha",60
same,"Plant response rating, Wheat","[8]; Preemergence, 61 g ai/ha",0
same,"Plant response rating, Wheat","[8]; Preemergence, 62 g ai/ha",60
same,"Plant response rating, Wheat","[8]; Preemergence, 125 g ai/ha",70

# Source: patent US12435044B2, “Pyridazinone herbicides and pyridazinone intermediates used to prepare a herbicide” (FMC Corporation, priority 2018, dated 2025)
